These results are taken from EP0742215A1, “Cillianon, antibiotic from penicillin spe., and chemical derivatives thereof, method for their preparation and application” (HOECHST AKTIENGESELLSCHAFT, priority 1995, dated 1996).

pIC50: −log10 of the molar value.

Data set [1] addresses T1, humanen IL-4 Rezeptor (huIL-4R/Fc) (Homo sapiens, UniProt P24394).
T1 construct: die aus der extrazellulären Region von normalerweise membranständigen Rezeptoren bestehen
T1 sequence (P24394 26-232 limits assumed): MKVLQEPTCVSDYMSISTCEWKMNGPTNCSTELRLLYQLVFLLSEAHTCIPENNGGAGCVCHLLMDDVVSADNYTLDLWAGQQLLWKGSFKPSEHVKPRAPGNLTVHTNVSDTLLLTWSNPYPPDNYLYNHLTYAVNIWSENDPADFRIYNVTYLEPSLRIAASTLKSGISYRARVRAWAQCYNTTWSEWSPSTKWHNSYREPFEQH
Kind of data set: Cell-free huIL-4 binding assay (IL-4 receptor test, ELISA with receptor/Fc fusion protein and biotinylated ligand). To be noted: huIL-4R/Fc 500 ng/ml; biotinylated huIL-4 100 ng/ml; 1 h room temperature; PBSA with 5 % DMSO; Abbildung 3. An excerpt: Aus der EP 488 170 A1 sind zellfreie Bindungsteste bekannt. Für ihre Durchführung werden rekombinante chimäre Proteine verwendet, die aus der extrazellulären Region von normalerweise membranständigen Rezeptoren bestehen, an deren Carboxyterminus die Fc-Region einer schweren Immunglobulinkette bestehend aus Hinge-, CH2- und CH3-Domäne fusioniert wurde. Diese sogenannten Rezeptor/Fc-Fusionsproteine können unter Erhalt der spezifischen Rezeptorbindungsaktivität an Festphasen gebunden werden, die beispielsweise mit monoklonalen Antikörpern gerichtet gegen den Fc-Teil vorbeschichtet wurden. Als Festphase wurden für dieses Beispiel ®Nunc Typ B ELISA-Platten verwendet. Rezeptor/Fc-Fusionsproteine gelöst in PBS enthaltend 10 mg/ml BSA (PBSA) wurden an diese vorbehandelten Platten gebunden (huIL-4R/Fc: 500 ng/ml; muIL-4R/Fc: 250 ng/ml; huIL-1R/Fc: 125 ng/ml; 1 h bei Raumtemperatur). Nach Waschen wurden die Peptide beziehungsweise die jeweiligen spezifischen unmarkierten Liganden (huIL-4R/Fc: huIL-4; muIL-4R/Fc: muIL-4; huIL-1R/Fc:huIL-1ra) in variierenden Konzentrationen und danach die spezifischen Liganden in biotinylierender Form in einer festen Konzentration zugegeben (100 ng/ml). Die Inkubation erfolgte 1 h bei Raumtemperatur in PBSA enthaltend 5 % DMSO. Nach Waschen erfolgte eine Inkubation mit Streptavidin/Peroxidase (Amersham, 1:2000 in PBSA) für 20 min bei Raumtemperatur. […]

The nature of data set [2]: Solubility (physicochemical properties, Table 1). To be noted: in Methanol, Acetonitril, Chloroform und Benzol. From the text: (§1) Die physikalisch-chemisch sowie spektroskopischen Eigenschaften von Cillianon lassen sich wie folgt zusammenfassen: Tabelle 1
Data set [3] can be described thus: Stability (physicochemical properties, Table 1).
From the text: as §1

For orientation: pIC50 means the negative decadic logarithm of the IC50, by convention in mol/L. Higher therefore signals a low IC50. `Cc1cc(O)c2c3c(c(O)c4c(c13)OC(C)C4(C)C)C(=O)C(O)(O)C2=O` (centres unmarked) [Cillianon]: the pIC50 in data set [1] was 4.25. Besides, in data set [2], the Löslichkeit result was “lösliche”. The Stabilität entry in data set [3] (im sauren Milieu) is recorded as “stabil”; in data set [3] (in wässrigem Alkali), “unbeständig”; in data set [3] (unter Lichteinwirkung), “unbeständig”.
